Results: patent publication US4624944A, “Human seminal alpha-inhibins” (The Regents of The University of California, priority 1985, dated 1986)
Where no end group is shown, it is not given here.

Assays:
[1] = tested on: rabbit antiserum to alpha-IB-31; experiment: RIA of alpha-inhibins using rabbit antiserum to ILP (displacement of labelled [Tyr4]-alpha-IB-31); assay type: binding; conditions: for potency in displacing labelled [Tyr4]-alpha-IB-31, relative to alpha-IB-31: antiserum raised against alpha-IB-31, text statement; for ED50 (RIA): rabbit antiserum to ILP; for ED50 (RIA) / Relative Potency (RIA): 95% confidence limits in parenthesis; for Relative Potency (RIA): relative to alpha-IB-31 = 1.00
Procedure: Radioimmunoassay was performed with rabbit antiserum to alpha-IB-31. Amino acid analyses were performed in an automatic amino acid analyzer (Model 119C, Beckman) as described by Spackman, et al. (1958). The NH2 -terminal residue was determined by the dansyl-Edman procedure (Gray, 1967). For COOH-terminal residue analysis, carboxypeptidase Y digests were carried out in 1M pyridine acetate buffer (pH 5.5) for 4 hr at 37° C. with an enzyme-to-substrate ratio of 1:50. Trypsin digestions were performed with an enzyme-to-substrate ratio of 1:50 in 0.05M Tris/0.01 M Mg^2+, pH 8.5, at 37° C. for 4 hr.
Alpha-IB-52 and alpha-IB-92 cross-react to an antiserum raised against alpha-IB-31. They displace labelled [Tyr^4 ]-alpha-IB-31 with 60% of the potency of alpha-IB-31.

[2] = tested on: LHRH-induced FSH secretion by mouse pituitary; experiment: FSH-suppressing (inhibin) activity, in vitro mouse pituitary system; assay type: cell-based; conditions: for ED50 (FSH-suppressing activity) / times more active than alpha-IB-31 in suppressing FSH (follitropin) release: mouse pituitaries in vitro; for ED50 (FSH-suppressing activity): LHRH-induced FSH secretion, 95% confidence limits in parenthesis; for times more active than alpha-IB-31 in suppressing FSH (follitropin) release: text statement; for Relative Potency (FSH-suppressing activity): relative to alpha-IB-31 = 1.0
Procedure: FIG. 6 is a graphical illustration of the effect of alpha-IB-31, alpha-IB-52, and alpha-IB-92 on LHRH-induced FSH secretion by mouse pituitary. Means ±SEM (n=5) are shown. On the graph solid circles represent alpha-IB-31; open circles represent alpha-IB-52; solid triangles represent alpha-IB-92.
Disc electrophoresis in polyacrylamide slab gels was performed as described by Reisfield, et al. (1962). The gels were stained with Coomassie Blue (R250). NaDodSO4 gel electrophoresis was carried out as described by Laemmli (1970). The inhibin activity was assayed by the in vitro mouse pituitary system (Yamashiro, et al., 1984; Ramasharma, et al., 1981).
FIG. 6 presents bioassay data for alpha-IB-31, alpha-IB-52 and alpha-IB-92 in suppressing the lutropin-releasing hormone (LHRH)-induced FSH secretion by using mouse pituitaries in vitro. […] The addition of 40 amino acids at the NH2 -terminus of alpha-IB-52 greatly enhance the inhibin activity.

pituitary FSH secretion = conditions: in vitro and in vivo, Yamashiro et al. (1984); cited from earlier work

Substance | potency in displacing labelled [Tyr4]-alpha-IB-31, relative to alpha-IB-31 [1] [%] | ED50 (RIA) [1] | Relative Potency (RIA) [1] | ED50 (FSH-suppressing activity) [2] | times more active than alpha-IB-31 in suppressing FSH (follitropin) release [2] [times] | times more active than alpha-IB-31 in suppressing FSH (follitropin) release ([2]; listed as alpha-inhibin-92) | Relative Potency (FSH-suppressing activity) [2] | suppression of pituitary FSH secretion (pituitary FSH secretion)
alpha-inhibin-92 [alpha-IB-92] | 60 | 63 (42-94) fmoles | 0.60 (0.31-1.2) | 0.025 (0.01-0.049) pmol/ml | 40 | over 40 times | 40.5 | 
HNKQEGRDHDKSKGHFHRVVIHHKGGKAHRGTQNPSQDQGNSPSGKGISSQY [alpha-IB-52, alpha-inhibin-52] | 60 | 65 (45-92) fmoles | 0.58 (0.31-1.1) | 0.30 (0.18-0.52) pmol/ml | 3.4 |  | 3.4 | 
HNKQEGRDHDKSKGHFHRVVIHHKGGKAHRG [alpha-IB-31, alpha-inhibin-31, reference compound] |  | 38 (29-50) fmoles | 1.00 | 1.02 (0.34-2.9) pmol/ml |  |  | 1.0 | suppresses pituitary FSH secretion in vitro and in vivo
